In patent US20230322779A1 (priority 2020, published 2023):
Where two headings read alike, the source gives them in different places.

Tests used:
in vitro = details: human, A549-hACE2 cells, uninfected
[1] = system: SARS-CoV-2 (βCoV/KOR/KCDC03/2020); test: Dose-response curve analysis by immunofluorescence, anti-SARS-CoV-2 activity in Calu-3 cells; type: cell-based
SARS-CoV-2 B.1.1.7 = test: SARS-CoV-2 in primary human bronchial cells at air liquid interface (HAEC-ALI), vRNA of apical wash by RT-qPCR; type: cell-based
Calu-3 cells = test: Cell viability by nucleus counting in the Calu-3 dose-response assay; details: 0.0025 to 50 μM
[2] = system: SARS-CoV-2 nLUC reporter virus; test: microbe, parasite or virus in culture; type: cell-based; details: for antiviral activity against SARS-CoV-2 reporter virus in A549-hACE2 cells: 10 to 0.002 μM
[3] = Severe acute respiratory syndrome coronavirus 2, 48 h

Row | Structure (SMILES) | CC50 at 48 h (in vitro) [nM] | antiviral activity against SARS-CoV-2 in Calu-3 cells [1] | inhibition of vRNA in apical wash fluid (SARS-CoV-2 B.1.1.7; 0.37 μM and lower, HAEC-ALI) | inhibition of vRNA in apical wash fluid (SARS-CoV-2 B.1.1.7; 1.1 μM, day 9, HAEC-ALI) | inhibition of vRNA in apical wash fluid (SARS-CoV-2 B.1.1.7; 3 μM, day 4-11, HAEC-ALI) | inhibition of vRNA in apical wash fluid (SARS-CoV-2 B.1.1.7; 10 μM, all timepoints (day 2-11), HAEC-ALI) | antiviral against SARS-CoV-2 (overall, HAEC-ALI) (SARS-CoV-2 B.1.1.7; primary human bronchial cells, air liquid interface) | toxicity in Calu-3 cells (Calu-3 cells) | IC50 [2] [nM] | antiviral activity against SARS-CoV-2 reporter virus in A549-hACE2 cells [2] | IC50 [2, 3] [nM] | inhibition of vRNA in apical wash fluid (SARS-CoV-2 B.1.1.7; 3 μM, all timepoints (day 2-11), HAEC-ALI)
1 | FC(F)(F)c1cc(C(F)(F)F)c2ccc3nc(-c4nnco4)cn3c2n1 [Example 1, 2-[2,4-bis(trifluoromethyl)imidazo[1,2-a]1,8-naphthyridin-8-yl]-1,3,4-oxadiazole] | > 10000 | activity in the μM range | No inhibition was observed | statistically significant inhibition | statistically significant inhibition | statistically significant inhibition | antiviral against SARS-CoV-2 when used in the μM range | Neither compound showed toxicity | 1710 | has antiviral activity against SARS-CoV-2 reporter virus when used in the μM range | > 1000 | –
2 | FC(F)(F)c1nc(C(F)(F)F)c2ccc3nc(-c4nnco4)cn3c2n1 [Example 9, 2-(2,4-bis(trifluoromethyl)imidazo[1′2′:1,6]pyrido[2,3-d]pyrimidin-8-yl)-1,3,4-oxadiazole] | > 10000 | activity in the μM range | – | – | – | – | – | Neither compound showed toxicity | – | has antiviral activity against SARS-CoV-2 reporter virus when used in the μM range | > 1000 | –
3 | N#C[C@@]1(c2ccc3c(N)ncnn23)O[C@H](CO)[C@@H](O)[C@H]1O [GS-441524, reference compound] | – | – | – | – | – | – | – | – | – | – | – | statistically significant inhibition
